Measured values from ChEMBL document CHEMBL5620345, “Metal binding pharmacophore click-derived discovery of new broad-spectrum metallo-β-lactamase inhibitors” (Eur J Med Chem, 2023).

Tests used:
[1] = Inhibition of recombinant NDM1 (unknown origin) expressed in Escherichia coli (DE3) cells using FC5 as substrate by microplate reader assay
[2] = Inhibition of recombinant VIM-1 (unknown origin) expressed in Escherichia coli (DE3) cells using FC5 as substrate by microplate reader assay
[3] = Inhibition of recombinant his tagged IMP1 (unknown origin) expressed in Escherichia coli (DE3) cells using FC5 as substrate by microplate reader assay
[4] = Inhibition of recombinant his tagged VIM-2 (unknown origin) expressed in Escherichia coli (DE3) cells using FC5 as substrate by microplate reader assay
[5] = Inhibition of recombinant VIM-5 (unknown origin) expressed in Escherichia coli (DE3) cells using FC5 as substrate by microplate reader assay

| Compound | IC50 [1] [µM] | IC50 [2] [µM] | IC50 [3] [µM] | IC50 [4] [µM] | IC50 [5] [µM] |
| --- | --- | --- | --- | --- | --- |
| O=P(O)(O)Cc1ccccc1-n1cc(-c2ccccc2)nn1 | > 100 | 10 | > 100 | 1.48 | 1.63 |
| CC(C)(C)OC(=O)NCCn1cc(-c2cccc(B(O)O)c2)nn1 | > 100 | > 100 | > 100 | 52.4 | > 100 |
| O=C(O)c1cccc(-n2cc(-c3ccccc3)nn2)c1C(=O)O | > 100 | > 100 | 8.23 | 13.3 | > 100 |
| Nc1ccc(-c2cn(-c3cccc(C(=O)O)c3C(=O)O)nn2)cc1 | > 100 | > 100 | 5.07 | 10.3 | > 100 |
| O=C(CCn1cc(-c2cccc(B(O)O)c2)nn1)Nc1ccccc1 | > 100 | > 100 | > 100 | 34.3 | 6.36 |
| NCc1cn(-c2cccc(C(=O)O)c2C(=O)O)nn1 | > 100 | > 100 | 81.5 | > 100 | > 100 |
| NCc1cccc(-c2cn(-c3ccccc3CP(=O)(O)O)nn2)c1 | > 100 | 21.7 | > 100 | 4.92 | 1.4 |
| CCCCc1cn(-c2ccccc2CP(=O)(O)O)nn1 | > 100 | 13.8 | > 100 | 5.34 | 32.2 |
| O=C(O)c1cccc(-n2cc(CNc3ccccc3)nn2)c1C(=O)O | > 100 | 37.8 | 3.53 | 53.2 | 72 |
| O=C(O)c1cccc(-n2cc(-c3ccccc3)nn2)c1O | > 100 | 61.9 | > 100 | > 100 | 59.9 |
| O=C(O)c1cccc(-n2cc(CCO)nn2)c1C(=O)O | > 100 | > 100 | 40.7 | > 100 | > 100 |
| O=C(O)c1ccc(-n2cc(-c3ccccc3)nn2)cc1C(=O)O | > 100 | > 100 | 46.2 | 94.6 | 60.4 |
| O=C(O)c1cccc(-n2cc(Cc3ccccc3)nn2)c1C(=O)O | > 100 | 71 | 9.02 | > 100 | 87.1 |
| OCCn1cc(-c2cccc(B(O)O)c2)nn1 | > 100 | > 100 | > 100 | > 100 | > 100 |
| NCc1cccc(-c2cn(-c3cccc(C(=O)O)c3C(=O)O)nn2)c1 | > 100 | > 100 | 19.7 | > 100 | > 100 |
| Cc1cccc(-c2cn(-c3ccccc3CP(=O)(O)O)nn2)c1 | > 100 | 6.57 | > 100 | 3.37 | 1.89 |
| Cc1cccc(-c2cn(-c3cccc(C(=O)O)c3C(=O)O)nn2)c1 | > 100 | > 100 | 1.83 | 19.8 | 28.8 |
| O=C(O)c1cccc(-n2cc(-c3cccc(Cl)c3)nn2)c1C(=O)O | > 100 | 15 | 2.84 | 20.5 | 32.2 |
| O=C(O)c1cn(-c2cccc(C(=O)O)c2C(=O)O)nn1 | > 100 | > 100 | 29.2 | 55.3 | 93.6 |

Other lines, results leading:

| IC50 [1] [µM] | IC50 [2] [µM] | IC50 [3] [µM] | IC50 [4] [µM] | IC50 [5] [µM] | Compound |
| --- | --- | --- | --- | --- | --- |
| 0.18 | 0.041 | 13.2 | 0.004 |  | NCCN[C@H]1CC[C@H](CC(=O)N[C@H]2Cc3cccc(C(=O)O)c3OB2O)CC1 |
| > 100 | > 100 | > 100 | > 100 | > 100 | O=C(O)c1cccc(-n2cc(-c3ccccc3)nn2)c1 |
| > 100 | > 100 | > 100 | > 100 | > 100 | Nc1c(C(=O)O)cccc1-n1cc(-c2ccccc2)nn1 |
| > 100 | > 100 | > 100 | > 100 | > 100 | NCc1cn(-c2ccccc2CP(=O)(O)O)nn1 |
| > 100 | 19.5 | 13.9 | > 100 | > 100 | O=C(O)c1ccccc1-c1cn(-c2cccc(C(=O)O)c2C(=O)O)nn1 |
| 36.3 | > 100 | > 100 | 64.2 | 14.6 | OB(O)c1cccc(-c2cn(Cc3ccccc3)nn2)c1 |
| > 100 | > 100 | 6.43 | 37.6 | 61.7 | Nc1ccccc1-c1cn(-c2cccc(C(=O)O)c2C(=O)O)nn1 |
| > 100 | 14.5 | 1.17 | 11.7 | > 100 | Nc1cccc(-c2cn(-c3cccc(C(=O)O)c3C(=O)O)nn2)c1 |
| > 100 | > 100 | 8.94 | 77.2 | > 100 | CCCCc1cn(-c2cccc(C(=O)O)c2C(=O)O)nn1 |
| > 100 | 6.29 | 80.4 | 0.88 | 1.49 | O=P(O)(O)Cc1ccccc1-n1cc(-c2cccc(Cl)c2)nn1 |
| > 100 | > 100 | > 100 | > 100 | > 100 | OB(O)c1cccc(-c2cn(-c3ccccc3)nn2)c1 |
| > 100 | > 100 | 1.8 | 67.5 | > 100 | NCCc1ccc(-c2cn(-c3cccc(C(=O)O)c3C(=O)O)nn2)cc1 |
| > 100 | > 100 | > 100 | > 100 | > 100 | O=C(O)c1cccc(-n2cc(-c3ccccc3)nn2)c1[N+](=O)[O-] |
| > 100 | 16 | > 100 | 1.63 | 1.5 | O=P(O)(O)Cc1ccc(-n2cc(-c3ccccc3)nn2)cc1 |
| 29.1 | > 100 | > 100 | 24.2 | 14.7 | OB(O)c1cccc(-c2cn(-c3cccc(Cl)c3)nn2)c1 |
| 27.8 | 3.65 | 5.98 | 0.65 | 0.05 | O=P(O)(O)Cc1cccc(-n2cc(-c3ccccc3)nn2)c1 |
| 68.2 | > 100 | > 100 | 30.5 | 48.7 | O=C(CCn1cc(-c2cccc(B(O)O)c2)nn1)Nc1cccc(Cl)c1 |
| 94.9 | 27.2 | > 100 | 1.11 | 0.38 | Nc1cccc(-c2cn(-c3ccccc3CP(=O)(O)O)nn2)c1 |
| 50.4 | > 100 | > 100 | 18.4 | > 100 | Nc1cccc(-n2cc(-c3cccc(B(O)O)c3)nn2)c1 |
| 25.9 | 9.79 | 8.49 | 0.65 | 0.1 | O=P(O)(O)Cc1cccc(-n2cc(-c3ccccc3F)nn2)c1 |
| 82.8 | 46 | > 100 | 4.16 | 14.9 | O=P(O)(O)Cc1ccccc1-n1cc(CNc2ccccc2)nn1 |
